Experimental data published in patent US6011019A, “Vasoactive effects and free radical generation by β-amyloid peptides” (University of South Florida, priority 1996, dated 2000).

Assays:
[1] = tested on: blood vessel (rat aorta); assay: Acetylcholine induced relaxation of preconstricted rat aorta after β-amyloid; details: for acetylcholine induced relaxation after β-amyloid pretreatment: 10^-6 M β-amyloid fifteen minutes, preconstricted with 10^-7 M phenylephrine
Description: (§1) The blood vessel preparations were mounted on stainless steel hooks attached to a force-displacement transducer and equilibrated under the optimum tension of 1.3 g for a period of sixty minutes in a tissue bath (10 ml) containing oxygenated (5% CO2 in O2) Kreb's buffer at 37° C. The buffer was changed every fifteen minutes. After equilibration for sixty minutes the viability of the blood vessel with intact endothelium was established by constricting the blood vessel using phenylephrine ([…]). This dose of phenylephrine elicited 80% of the maximum response. […] The vessel preparations were washed for fifteen minutes before various manipulations as described below.
(1=10^-9 M, 2=10^-8 M, 3=5×10^-8 M, 4=10^-7 M, 5=5×10^-7 M, 6=10^-6 M, 7=10^-5 M, 8=5×10^-5 M, the curve denoted by (C) is the control curve and +Aβ indicates the curve for β-amyloid treated aorta.)
FIG. 11 illustrates the relaxation by acetylcholine under control conditions and following fifteen minute incubation with 10^-6 M β-amyloid protein. The acetylcholine relaxation curve is shifted to the right but maintains its sigmoidal form indicating attenuation of acetylcholine induced relaxation. Values represent the mean±SEM of 5 or more experiments. […] At higher doses of acetylcholine greater percentage changes in relaxation occur preserving the sigmoidal response.

[2] = tested on: aortic rings; assay: β-amyloid augmentation of phenylephrine (PE) induced contraction of aortic rings; set-up: species or system rat; details: for PE induced contraction, +β-Amyloid P1 (±SEM): after 10^-6 M β-amyloid, maximum contraction without β-amyloid = 100%; for PE induced contraction, +β-Amyloid P2 (±SEM): repeated contraction after washing, no further β-amyloid
Description: as §1
The procedure was then repeated following incubation of the tissue with 10^-6 M β-amyloid for fifteen minutes (P1). The tissue was then rinsed and contractions repeated twice following fifteen minute incubation (P2 & P3) without further addition of β-amyloid. Arrows are shown for points of addition for P3.
Following a fifteen minute incubation, the preparations were contracted with 10^-7 M phenylephrine (PE) as described earlier. Control contractions with PE alone were carried out in presence of the various test compounds. Values represent the mean±SEM of four or more experiments. The heat-inactivated SOD was prepared by placing it in boiling water for thirty minutes followed by cooling prior to use. The hydrogen peroxide-inactivated SOD was prepared by exposing SOD to 10 mM H2 O2 for thirty minutes at pH 8.5 and subsequent separation using Microcon filtration system. The amyloid induced PE contraction was blocked by active SOD. Neither albumin or inactivated SOD had any effect on the amyloid activity.
The effect of preincubation of blood vessel with 10^-6 M β-amyloidon contraction induced by phenylephrine (2, 4, 8, & 16×10^-8 M is shown in Table 1). The maximum contraction in the absence of β-amyloid is taken as 100% and the values obtained following exposure to β-amyloid are expressed as percent of control value. After washing out phenylephrine and acetylcholine of the control contraction, β-amyloid augmented the phenylephrine induced contractions (P1). This effect was blocked by SOD. Washing out the phenylephrine and acetylcholine of the post peptide contraction and repeating the contractions caused further enhancement (P2). Values represent the mean±SEM of nine or more experiments.
The tissue was then incubated for fifteen minutes with β-amyloid (5×10^-7 M) with or without the drug, followed by contractions with PE. The concentrations compounds used were: L-NMMA, an inhibitor of NO synthase (10^-4 M); indomethacin, an inhibitor of the cyclooxygenase pathway (10^-5 M); SQ 29548, a thromboxane A2 receptor antagonist (10^-5 M); and catalase (1000 units/ml). Values are represented as percentage of the maximal contraction obtained with β-amyloid and PE alone and standardized to remove the intrinsic effects (if any) of each drug on PE contraction alone. The results represent the mean±SEM of five or more experiments.

[3] = tested on: endothelial cells in aortic rings; assay: Electron microscopy of endothelial cell layer in aortic rings; set-up: species or system rat
Description: As shown in FIGS. 14A-F, […], or in presence of β-amyloid (10^-6 M), or SOD (150 units/ml) and β-amyloid.The tissue samples were kept in glutaraldehyde solution at 4° C. until processed and then rinsed with cacodylate buffer. The tissues were postfixed with 1% buffered osmium tetroxide, dehydrated with graded ethanol solutions, and embedded in a mixture of eponaraldite. Ultrathin sections were stained with uranyl acetate and lead citrate and viewed on model 7000 Hitachi transmission electron microscope. The inset bar indicates one micron. The experiment was repeated three or more times with blood vessels from different animals.

[4] = tested on: rat coronary arteries; assay: Rat coronary artery constriction and relaxation (U46619, acetylcholine); details: single dose 10^-6 M; preconstricted with 10^-7 M U46619
Description: The effects of β-amyloid peptide were examined on samples of rat coronary arteries prepared as described above. Referring specifically to FIG. 1, rat coronary arteries were treated with β-amyloid peptide (Aβ40) causing constriction of the coronary arteries.
FIG. 3 illustrates the effect of various amyloid fragments on the constriction of rat coronary arteries. Following control constriction with 10^-7 M U46619, the tissue samples were rinsed, equilibrated with buffer, and treated with 10^-6 M Aβ peptides for fifteen minutes. Following treatment with the Aβ peptides, the blood vessels were rinsed and again exposed to U46619. The values are expressed as percent of control constriction produced by U46619 alone.
The effect of pretreatment of coronary arteries with a single dose (10^-6 M) of A40 on acetylcholine induced relaxation is shown in FIG. 20. The blood vessel was preconstricted with 10^-7 M U46619 and relaxed with increasing doses of acetylcholine (10^-9 M to 10^-5 M).

[5] = tested on: endothelial cell layer in rat coronary artery; assay: Electron microscopy of endothelial cell layer in rat coronary artery; details: β-amyloid thirty minutes at 10^-6 M
Description: The physiological effects of β-amyloid treatment on the coronary artery with and without pretreatment with SOD is shown in FIG. 7A-C. FIG. 7A-C are electron micrographs showing the endothelial cell layer in rat coronary artery. […] The tissue samples were kept in glutaraldehyde solution at 4° C. until processed and then rinsed with cacodylate buffer. The tissues were post-fixed with 1% buffered osmium tetroxide, dehydrated with grated ethanol solutions, and embedded in a mixture of eponaraldite. Ultra thin sections were stained with uranyl acetate and lead citrate and viewed on a model 7,000 Hitachi transmission electron microscope. The inset bar indicates two microns. The experiment was repeated three or more times with blood vessels from different animals. FIG. 7A is a control coronary artery and depicts normal endothelial cells closely adhering to the intimal elastic lamina lining of the lumen. […] FIG. 7C depicts a rat coronary artery pretreated with SOD (150 units/ml, for thirty seconds prior to the addition of β-amyloid).

[6] = tested on: bovine mid cerebral arteries; assay: Bovine mid cerebral artery contraction (U46619) and bradykinin vasodilation; details: 1 μM β-amyloid for 15 minutes
Description: Freshly dissected bovine mid cerebral arteries were cut into 3 mm rings and studied in tissue chamber as described earlier. Contraction of the blood vessel to the vasoconstrictor U46619 was studied before and after treatment with 1 μM β-amyloid for 15 minutes. […] (See FIG. 24).

β-amyloid was tested, and the “acetylcholine induced relaxation after β-amyloid pretreatment” value [1] was “significantly reduced relaxation”, the “acetylcholine induced relaxation after β-amyloid pretreatment” value ([1]; listed as β-amyloid protein) was “significantly lowered” and the “restoration of acetylcholine induced relaxation by washing after β-amyloid” value ([1]; tissue washed following β-amyloid exposure) was “did not restore the acetylcholine-induced relaxation to control levels”. The “PE induced contraction, +β-Amyloid P1 (±SEM)” value ([2]; PE 2×10^-8 M) was 13.3(5.9) percent of control value, the “PE induced contraction, +β-Amyloid P2 (±SEM)” value ([2]; PE 2×10^-8 M) was 20(5.0) percent of control value and the “PE induced contraction, +β-Amyloid P1 (±SEM)” value ([2]; PE 4×10^-8 M) was 75(6.0) percent of control value. For the same substance, the “PE induced contraction, +β-Amyloid P2 (±SEM)” value ([2]; PE 4×10^-8 M) was 99(15.0) percent of control value, the “PE induced contraction, +β-Amyloid P1 (±SEM)” value ([2]; PE 8×10^-8 M) was 105(15.0) percent of control value and the “PE induced contraction, +β-Amyloid P2 (±SEM)” value ([2]; PE 8×10^-8 M) was 133(20.0) percent of control value. For the same substance, the “PE induced contraction, +β-Amyloid P1 (±SEM)” value ([2]; PE 16×10^-8 M) was 128(11.7) percent of control value, the “PE induced contraction, +β-Amyloid P2 (±SEM)” value ([2]; PE 16×10^-8 M) was 141(17.6) percent of control value and the “PE contraction after washing the β-amyloid treated tissue” value ([2]; subsequent contraction with PE) was “showed further increase”. For the same substance, the “β-amyloid concentration required to induce the morphological changes” value ([3]; incubation periods of fifteen minutes) was > 5×10^-7 M, the “endothelial cell morphology after incubation” value ([3]; β-amyloid 10^-6 M, 37° C., thirty minutes) was “induced significant damage to the endothelial cells” and the “acetylcholine induced vasodilation after pretreatment” value [4] was “significantly reduced the vasodilation induced by acetylcholine”. The “endothelial layer morphology in rat coronary artery” value [5] was “Derangement of the endothelial layer, condensed nucleus, separation from the intimal elastic lamina, and areas of denuded internal elastic lamina”, the “contraction induced by U46619 after β-amyloid” value [6] was “significantly increased” and the “vasodilatory effect of bradykinin after β-amyloid” value [6] was “markedly reduced”.
